From patent publication US10448639B2, “Fungicidal pyrazoles” (FMC CORPORATION, priority 2009, dated 2019) come the findings set out here.

Assay [1] concerns Puccinia recondita f. sp. tritici. Put plainly: Test I: wheat leaf rust, preventive spray on wheat seedlings, visual disease rating. The following applies: for Test I rating (% disease control) / Test I disease control rating: wheat leaf rust, 100 = 100% disease control; for Test I rating (% disease control): preventive, 0 = no control relative to controls; for Test I disease control rating: sprayed the day before inoculation, 0 = no disease control relative to controls; for pest or weed control at 200 µg/mL: 192 h.

For the next assay, the system named is Botrytis cinerea. The assay can be described thus: Test B: tomato Botrytis, preventive spray on tomato seedlings, visual disease rating. The following applies: for Test B rating (% disease control) / Test B disease control rating: tomato Botrytis, 100 = 100% disease control; for Test B rating (% disease control): 0 = no control relative to controls; for Test B disease control rating: 0 = no disease control relative to controls; for pest or weed control at 200 µg/mL: Botrytis cinerea, in Solanum lycopersicum, 120 h.

For the next assay, the system named is Septoria tritici. The assay can be described thus: Test G: wheat leaf blotch, preventive spray on wheat seedlings, visual disease rating. To be noted: wheat leaf blotch, 100 = 100% disease control; for Test G rating (% disease control): 0 = no control relative to controls.
In a further assay the test system is Alternaria solani. Put plainly: Test C: tomato early blight, preventive spray on tomato seedlings, visual disease rating. The following applies: for Test C rating (% disease control) / Test C disease control rating: tomato early blight, 100 = 100% disease control; for Test C rating (% disease control): 0 = no control relative to controls; for Test C disease control rating: 0 = no disease control relative to controls; for pest or weed control at 200 µg/mL: Alternaria solani, in Solanum lycopersicum, 168 h.

Assay [2] relates to Erysiphe graminis f sp. tritici. The assay can be described thus: Test J: wheat powdery mildew, preventive spray on wheat seedlings, visual disease rating. The following applies: for Test J rating (% disease control): 0 = no control relative to controls; for pest or weed control at 200 µg/mL: Blumeria graminis, in Triticum aestivum, 192 h.
The subject of a further assay is Septoria nodorum. Put plainly: Test F: Septoria glume blotch, preventive spray on wheat seedlings, visual disease rating. To be noted: for Test F rating (% disease control): Septoria glume blotch, 0 = no control relative to controls; for Test F rating (% disease control) / Test F disease control rating: 100 = 100% disease control; for Test F disease control rating: Septoria glume blotch on wheat, 0 = no disease control relative to controls; for pest or weed control at 200 µg/mL: Parastagonospora nodorum, in Triticum aestivum, 192 h.

The test system of assay [3] is Puccinia recondita f. sp. tritici. The assay can be described thus: Test H: wheat leaf rust, curative spray on inoculated wheat seedlings, visual disease rating. The following applies: for Test H rating (% disease control) / Test H disease control rating: wheat leaf rust, 100 = 100% disease control; for Test H rating (% disease control): curative, 0 = no control relative to controls; for Test H disease control rating: sprayed after inoculation, 0 = no disease control relative to controls; for pest or weed control at 200 µg/mL: 144 h.

Where [4] appears, read: wheat powdery mildew, 100 = 100% disease control.

Like-named read-outs stand apart in the source and are kept apart here.

Regarding `COc1cc(F)c(-c2c(C)nn(C)c2Oc2ccc(Cl)cc2)c(F)c1` [compound 206], in assay [1], the “Test I rating (% disease control)” value is reported as 99%. Further, the “Test B rating (% disease control)” value with Botrytis cinerea was determined as 99%. Besides, the “Test G rating (% disease control)” value with Septoria tritici came out at 99%. Besides, the “Test C rating (% disease control)” value with Alternaria solani is reported as 99%. Besides, the “Test J rating (% disease control)” value in assay [2] (setting [4]) was 100%. Moreover, the “Test F rating (% disease control)” value in the assay with Septoria nodorum was found to be 84%. Further, in assay [3], the “Test H rating (% disease control)” value stood at 41%.
As for `COc1cc(Cl)c(Nc2c(-c3ccc(F)cc3Cl)c(C)nn2C)c(Cl)c1` [compound 296], in assay [1], the “Test I rating (% disease control)” value is listed as 99%. In addition, the “Test B rating (% disease control)” value in the assay on Botrytis cinerea is 99%. The “Test G rating (% disease control)” value in the assay with Septoria tritici came to 100%. Moreover, in the assay on Alternaria solani, the “Test C rating (% disease control)” value worked out at 0%. In addition, the “Test F rating (% disease control)” value in the assay with Septoria nodorum stood at 0%. Moreover, the “Test H rating (% disease control)” value in assay [3] stood at 0%.
With `COc1cc(F)c(-c2c(C)nn(C)c2Oc2ccc(Br)c(OC)c2)c(F)c1` [compound 212], the “Test B rating (% disease control)” value in the assay on Botrytis cinerea stood at 0%. Also, in the assay with Septoria tritici, the “Test G rating (% disease control)” value is reported as 98%. Moreover, the “Test C rating (% disease control)” value in the assay on Alternaria solani was 17%. Further, the “Test H rating (% disease control)” value in assay [3] amounted to 0%.
For `COc1cc(Cl)c(Nc2c(-c3ccc(F)cc3Br)c(C)nn2C)c(Cl)c1` [compound 323], in assay [1], the “Test I disease control rating” value came out at 94%. The “Test B disease control rating” value in the assay with Botrytis cinerea worked out at 98%. Besides, the “Test G disease control rating” value with Septoria tritici (sprayed the day before inoculation, 0 = no disease control relative to controls) is listed as 98%. Further, the “Test C disease control rating” value in the assay on Alternaria solani stood at 0%. Besides, the “Test F disease control rating” value in the assay with Septoria nodorum is given as 0%. Also, the “Test H disease control rating” value in assay [3] is on record as 0%.
Take `Cc1nn(C)c(Nc2c(F)cc(F)cc2Cl)c1-c1ccc(Cl)cc1Cl` [compound 391]: the “Test I disease control rating” value in assay [1] is given as 99%. Further, the “Test B disease control rating” value with Botrytis cinerea was 100%. In the assay on Alternaria solani, the “Test C disease control rating” value is 99%. Also, the “Test J disease control rating” value in assay [2] (wheat powdery mildew, sprayed the day before inoculation, 100 = 100% disease control, 0 = no disease control relative to controls) was determined as 99%. Further, in the assay with Septoria nodorum, the “Test F disease control rating” value was determined as 73%. Moreover, the “Test H disease control rating” value in assay [3] turned out to be 31%.
In the case of `Cc1nn(C)c(Nc2c(F)cc(Cl)cc2Cl)c1-c1ccc(F)cc1Cl` [Compound 367, 4-(2-chloro-4-fluorophenyl)-N-(2,4-dichloro-6-fluorophenyl)-1,3-dimethyl-1H-pyrazol-5-amine], the pest or weed control at 200 µg/mL (in assay [1] (read-out: Test I disease control rating); with Botrytis cinerea (read-out: Test B disease control rating); with Alternaria solani (read-out: Test C disease control rating); in assay [2] (read-out: Test J disease control rating); in the assay with Septoria nodorum (read-out: Test F disease control rating); in assay [3] (read-out: Test H disease control rating)) was 100% in each case.
Take `Cc1nn(C)c(Oc2ccc(C#N)cc2F)c1-c1ccc(F)cc1Br` [Compound 284, 4-[[4-(2-bromo-4-fluorophenyl)-1,3-dimethyl-1H-pyrazol-5-yl]oxy]-3-fluorobenzonitrile]: the pest or weed control at 200 µg/mL was found to be 100% in assay [1] (read-out: Test I rating (% disease control)); 99% in the assay on Botrytis cinerea (read-out: Test B rating (% disease control)); 99% with Alternaria solani (read-out: Test C rating (% disease control)); 100% in assay [2] (read-out: Test J rating (% disease control)); 100% in the assay with Septoria nodorum (read-out: Test F rating (% disease control)); 28% in assay [3] (read-out: Test H rating (% disease control)).
`COc1cccc(Nc2c(-c3ccc(F)cc3F)c(C)nn2C)c1Cl` [compound 281]: the “Test I rating (% disease control)” value in assay [1] is listed as 94%. Moreover, in the assay on Botrytis cinerea, the “Test B rating (% disease control)” value stood at 98%. Further, the “Test C rating (% disease control)” value in the assay on Alternaria solani amounted to 44%. Also, the “Test J rating (% disease control)” value in assay [2] (setting [4]) is 98%. In the assay with Septoria nodorum, the “Test F rating (% disease control)” value was found to be 0%. Further, in assay [3], the “Test H rating (% disease control)” value is reported as 0%.
